For series [1], the target named is DdlA (Mycobacterium tuberculosis, UniProt P9WP31). It counts as biochemical. As to conditions: for Kcat: Vmax divided by enzyme concentration. The text has this:
The activity of DdlA was monitored by coupling with pyruvate kinase (PK) and lactate dehydrogenase (LDH; Sigma-Aldrich) to detect the release of ADP. […] The assay system was monitored via a Perkin Elmer EnSpire® 2300 Multimode Plate Reader (PerkinElmer, MA, United States) by detecting decreases in NADH.
The calibration curve of the ultraviolet absorption of NADH at 340 nm to its concentrations was fabricated before studying the enzymatic kinetics of DdlA. The kinetic parameters of DldA were determined using serial twofold dilutions of one substrate (from 1 mM to 31.25 μM), while the other substrate was held constant at 1 mM. Km and Vmax values were calculated using non-linear regression of the Michaelis-Menten model in GraphPad Prism 5.0 (GraphPad Software, Inc., San Diego, CA, United States). Kcat was calculated based on the molecular weight of DdlA (42 kDa).

Series [2] concerns HepG2 cells.
Series [3] has as its system HepG2 cells. Briefly: Cytotoxicity assay (MTT), HepG2. To be noted: for SI: HepG2 TC50 relative to H37Rv MIC.
For series [4], the system named is clinical Mtb strains. Briefly: microbe, parasite or virus in culture. It counts as cell-based, Mycobacterium tuberculosis. As to conditions: for MIC: Mycobacterium tuberculosis.
The subject of series [5] is Vero green-monkey kidney cells. The experiment in a line: Cytotoxicity assay (MTT), Vero. As to conditions: Vero TC50 relative to H37Rv MIC.
The subject of series [6] is Mtb H37Rv. Briefly: microbe, parasite or virus in culture. To be noted: for MIC: Mycobacterium tuberculosis, 336 h. Format: cell-based, Mycobacterium tuberculosis.
The test system of series [7] is Mtb H37Rv. Briefly: Mouse model of TB, pulmonary bacterial load. Format: in vivo, Balb/c mice. As to conditions: 25 mg/kg by gavage, 15 administrations (five times per week); vehicle 5.58. The text has this:
Specific pathogen-free (SPF) male Balb/c mice were purchased from the Institute of Laboratory Animal Sciences at the Chinese Academy of Medical Sciences and Peking Union Medical College. All animal experiments were supervised and approved by the Institutional Animal Care and Use Committee of the Institute of Medicinal Biotechnology. Twenty-six mice (6–8 weeks old, 18–20 g) were infected with Mtb H37Rv (about 100 CFU) via the 099C A4224 Inhalation Exposure System (Glas-col, Terre Haute, IN, United States). At 15 days after inoculum, two mice were anesthetized and decapitated to confirm the success of infection. DCS, INH, IMB-0283, and vehicle (0.5% CMC-Na) were administered through a gavage route (six mice per group). All chemicals were dosed at 25 mg/kg. Mice were sacrificed after 15 administrations (five times per week) to quantify pulmonary bacterial loads via counting CFUs.

Series [8] concerns the target Mtb DdlA (Mycobacterium tuberculosis, UniProt P9WP31). The experiment in a line: DdlA inhibition, PK/LDH-coupled assay detecting ADP release (NADH decrease). Format: biochemical.
Series [9] has as its system Vero green-monkey kidney cells. To be noted: 2 days.
The test system of series [10] is Mtb H37Rv. Briefly: Morphology of Mtb by scanning electron microscopy. It counts as cell-based, Mycobacterium tuberculosis. As to conditions: 0.35 μg/mL.
Series [11] deals with C[C@@H](N)C(=O)O. The experiment in a line: purified protein, by the assay type. As to conditions: pH 8.0; 37.0 °C.
Setting [12] is: substrate of DdlA, other substrate at 1 mM.
Where [13] appears, read: Mtb H37Rv, 2 weeks at 37°C, read-out: MIC.
Setting [14] is: Dixon plot, Figure 4 panels A, C, substrate ATP inferred, read-out: Ki for DdlA (ATP) (converted).
Where [15] appears, read: Dixon plot, competing substrate ATP, read-out: Ki for DdlA (ATP) (converted).

Converted amounts (≈) assume the structure as drawn. “And” between values parts separate entries of the source, which are not always exact repeats. Equal values may be shown once. “Also recorded” adds a separate entry of the source. Read-outs that look alike come from different tables or passages of the source.

Sequence of Mtb DdlA (P9WP31 whole entry, looked up): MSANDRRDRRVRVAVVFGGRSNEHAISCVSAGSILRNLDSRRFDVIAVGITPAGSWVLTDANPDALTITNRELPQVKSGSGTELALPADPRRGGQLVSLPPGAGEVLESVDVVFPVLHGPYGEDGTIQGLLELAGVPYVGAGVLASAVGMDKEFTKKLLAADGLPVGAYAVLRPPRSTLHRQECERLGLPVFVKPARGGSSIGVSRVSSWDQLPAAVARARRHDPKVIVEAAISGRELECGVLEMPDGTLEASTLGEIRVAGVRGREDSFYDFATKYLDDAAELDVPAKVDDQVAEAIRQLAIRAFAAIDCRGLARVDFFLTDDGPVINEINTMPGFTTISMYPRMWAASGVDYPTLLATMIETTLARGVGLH
Sequence of DdlA (P9WP31 whole entry, looked up): as above

Take `Nc1ncnc2c1ncn2[C@@H]1O[C@H](COP(=O)(O)OP(=O)(O)OP(=O)(O)O)[C@@H](O)[C@H]1O` [ATP]: the Kcat in series [1] was 405.8 min^–1 and 383.00 ± 14.14 min^–1. For the same molecule, in series [1] (setting [12]), the Michaelis constant (Km) (in general, the concentration of substrate that gives half-maximal velocity) worked out at 360 ± 30.5 µM; the Vmax was 20.29 μMmin^–1 and 19.15 ± 0.705 μMmin^–1.

In series [1], `C[C@@H](N)C(=O)O` [D-Ala, D-alanine] registered a Kcat of 568.79 ± 48.93 min^–1. For the same molecule, in series [1] (setting [12]), the Vmax is on record as 28.44 ± 2.444 μMmin^–1.

Regarding `N[C@@H]1CON=C1O` [DCS, D-cycloserine, reference compound], the SI index entry in [2] (human (HepG2) and green monkey (Vero)) was “about 80”. Besides, the SI in series [3] amounted to 86.25; in series [5], 127.75. For the same molecule, the “MICs to several clinical strains” value in [4] (range over clinical strains) is reported as “did not show any inhibitory effect”. Further, the MIC in series [6] (setting [13]) worked out at 16 µg/mL (≈ 157 µM). Moreover, the “Mtb load in mouse lungs” value in series [7] is reported as “did not yield any such treatment efficacy; also recorded: did not yield any antibacterial activity; also recorded: showed no antibacterial activity”. The Ki (in general, the dissociation constant of the complex between target and ligand, obtained from inhibition or displacement) is 106 µM in [8] (setting [14]), 107 µM in series [8] (setting [15]) and 182 µM in [8] (Ki for DdlA (D-Ala)).

As to `OC1(c2ccc(OC(F)F)cc2)C[N+](c2ccccc2)=C2CCCCN21` (centres unmarked) [IMB-0283], the TC50 amounted to 115.4 µg/mL in series [2] (human, 2 days) and 249.8 µg/mL in series [9]. In addition, the SI in series [3] came to 230.8; in [5] it was 499.6. Also, the SI index result in series [3] (cell line not specified (HepG2 and Vero)) is “greater than 200”. For the same molecule, the MIC in series [4] (range over clinical strains, read-out: MICs to several clinical strains) is 0.5 to 4 µg/mL; in series [4] (strain FJ05060, S to INH, RMP, EMB, STR, CPM, KAN, OFX, read-out: MIC) it was 0.5 µg/mL; in series [4] (strain FJ05120, R to INH, RMP, read-out: MIC), 2 µg/mL; in series [4] (strain FJ05189, R to INH, RMP, read-out: MIC) it was 1 µg/mL; in series [4] (strain FJ05195, R to INH, RMP, EMB, STR, KAN, OFX, S to CPM, read-out: MIC), 4 µg/mL; in [4] (strain FJ05349, S to INH, RMP, EMB, STR, CPM, KAN, OFX, read-out: MIC) it was 0.5 µg/mL. The MIC in [4] (strain xz, R to INH, RMP, STR, CPM, OFX, S to EMB, KAN, read-out: MIC) was determined as 4 µg/mL; in series [6] (setting [13]), 0.5 µg/mL. The “Morphology of Mtb” value is “typical long-rod morphology” in series [10] (12 h); “shrunken, shorter, and fragmented” in series [10] (7 days). Also, in series [7], the “Mtb load in mouse lungs” value amounted to 4.40 log CFU/mL. Also, the inhibitory constant (Ki) was 5.43 µM in [8] (setting [14]); 4.44 µM in series [8] (setting [15]); 32.6 µM and 39.9 µM in series [8] (Ki for DdlA (D-Ala)). Also, the Inhibitory mode entry in series [8] (Lineweaver-Burk and Dixon plots) is recorded as “competed with both substrates of DdlA”. The figures for the half-maximal inhibitory concentration (IC50) in series [8] (mean of n = 3) and in [8] (printed in Figure 3B) were 6.16 µM and 7.62 µM, respectively.

`NNC(=O)c1ccncc1` [INH, isoniazid]: in series [6] (H37Rv, IMB-0283 at 0.125 μg/mL), the “Reduction of MIC when combined with IMB-0283” value was “eightfold”. Further, the “MIC when combined with IMB-0283” value in series [6] (H37Rv, IMB-0283 at 0.125 μg/mL (0.25 × MIC)) worked out at 0.016 µg/mL. The MIC in series [6] (setting [13]) amounted to 0.125 µg/mL (≈ 0.911 µM). Further, the “Mtb load in mouse lungs” value in [7] is 3.29 log CFU/mL.

With `CO[C@H]1/C=C/O[C@@]2(C)Oc3c(C)c(O)c4c(O)c(c(/C=N/N5CCN(C)CC5)c(O)c4c3C2=O)NC(=O)/C(C)=C\C=C\[C@H](C)[C@H](O)[C@@H](C)[C@@H](O)[C@@H](C)[C@H](OC(C)=O)[C@@H]1C` [RMP, rifampin], in series [6], the “MIC when combined with IMB-0283” value worked out at 0.016 µg/mL. In series [6] (H37RV), this molecule yielded an MIC of 0.063 µg/mL (≈ 0.0766 µM).

(Mycobacterium tuberculosis H37Rv): in series [11], the Vmax worked out at 28.4 µM/min; the kcat (commonly the number of substrate molecules converted per active site and unit of time at saturation) was found to be 9.48 s⁻¹.

The values are drawn from PMC6974524 (Frontiers in Microbiology, 2020).
